Reference: patent US6358885B1, “Substituted phenylheterocyclic herbicides” (Mississippi State University, priority 1992, dated 2002)

Tests used:
chickweed = experiment: Test C preemergence/postemergence greenhouse plant response rating 0 to 100; type: in vivo, Stellaria media; conditions: POSTEMERGENCE; for Plant response rating, Chickweed: 62 g/ha, 0 to 100 scale
In short: (§1)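 Compounds in non-phytotoxic solvent went onto sandy loam before emergence (seeded one day earlier) or onto plants at the one-to-four leaf stage. Duck salad was treated via flood water (~2.5 cm, maintained) over silt loam.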

bedstraw = experiment: as above; type: in vivo, Galium aparine; conditions: POSTEMERGENCE; for Plant response rating, Bedstraw: 62 g/ha, 0 to 100 scale
In short: as §1

wild buckwheat = experiment: Test B preemergence/postemergence greenhouse plant response rating 0 to 10; type: in vivo, Polygonum convolvulus; conditions: 0 to 10 scale
In short: (§2)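 Postemergence treatment of plants two to eighteen cm tall ran alongside preemergence treatment of planted seed, each using compound in a non-phytotoxic solvent.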

corn = experiment: Test C preemergence/postemergence greenhouse plant response rating 0 to 100; type: in vivo, Zea mays; conditions: POSTEMERGENCE; for Plant response rating, Corn: 62 g/ha, 0 to 100 scale
In short: as §1

purple nutsedge = experiment: Test B preemergence/postemergence greenhouse plant response rating 0 to 10; type: in vivo, Cyperus rotundus; conditions: 0 to 10 scale
In short: as §2

cocklebur = experiment: as above; type: in vivo, Xanthium pensylvanicum; conditions: for Plant response rating, Cocklebur: 0 to 10 scale
In short: as §2

sugar beet = experiment: Test C preemergence/postemergence greenhouse plant response rating 0 to 100; type: in vivo, Beta vulgaris; conditions: POSTEMERGENCE; for Plant response rating, Sugar beet: 62 g/ha, 0 to 100 scale
In short: as §1

rice [1] = experiment: Test B preemergence/postemergence greenhouse plant response rating 0 to 10; type: in vivo, Oryza sativa; conditions: 0 to 10 scale
In short: as §2

duck salad = experiment: Test C flood test plant response rating 0 to 100; type: in vivo, Heteranthera limosa; conditions: for Plant response rating Duck salad: flood test species listed under POSTEMERGENCE, 62 g/ha, 0 to 100 scale
In short: as §1

velvetleaf = experiment: Test C preemergence/postemergence greenhouse plant response rating 0 to 100; type: in vivo, Abutilon theophrasti; conditions: POSTEMERGENCE; for Plant response rating, Velvetleaf: 62 g/ha, 0 to 100 scale
In short: as §1

soybean = experiment: Test B preemergence/postemergence greenhouse plant response rating 0 to 10; type: in vivo, Glycine max; conditions: 0 to 10 scale
In short: as §2

cotton = experiment: Test C preemergence/postemergence greenhouse plant response rating 0 to 100; type: in vivo, Gossypium hirsutum; conditions: POSTEMERGENCE; for Plant response rating, Cotton: 62 g/ha, 0 to 100 scale
In short: as §1

giant foxtail = experiment: as above; type: in vivo, Setaria faberii; conditions: POSTEMERGENCE; for Plant response rating, Giant foxtail: 62 g/ha, 0 to 100 scale
In short: as §1

pigweed = experiment: as above; type: in vivo, Amaranthusretroflexus; conditions: POSTEMERGENCE; for Plant response rating Pigweed: 62 g/ha, 0 to 100 scale
In short: as §1

blackgrass = experiment: as above; type: in vivo, Alopecurus myosuroides; conditions: POSTEMERGENCE; for Plant response rating, Blackgrass: 62 g/ha, 0 to 100 scale
In short: as §1

rice [2] = experiment: Test C flood test plant response rating 0 to 100; type: in vivo, Oryza sativa; conditions: for Plant response rating Rice Japonica: flood test species listed under POSTEMERGENCE, 62 g/ha, 0 to 100 scale
In short: (§3)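 Compounds in non-phytotoxic solvent applied preemergence to sandy loam one day after planting, postemergence at the 1–4 leaf stage, or to ~2.5 cm floodwater over silt loam.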

umbrella sedge = experiment: Test C flood test plant response rating 0 to 100; type: in vivo, Cyperus difformis; conditions: for Plant response rating Umbrella sedge: flood test species listed under POSTEMERGENCE, 62 g/ha, 0 to 100 scale
In short: as §3

[3] = POSTEMERGENCE section, flood test, Rate 1 g/ha
[4] = POSTEMERGENCE section, flood test, Rate 4 g/ha
[5] = Rate 16 g/ha, under POSTEMERGENCE head (flood test species)

## CCCN1C(=O)COc2cc(F)c(-c3nn4c(c3Cl)CCCC4)cc21 [Compound 32]
chickweed
  Plant response rating, Chickweed: 100
chickweed; Rate 1 g/ha
  Plant response rating (0 to 100), Chickweed: 30
chickweed; Rate 4 g/ha
  Plant response rating (0 to 100), Chickweed: 60
chickweed; Rate 16 g/ha
  Plant response rating (0 to 100), Chickweed: 90
bedstraw
  Plant response rating, Bedstraw: 100
bedstraw; Rate 1 g/ha
  Plant response rating (0 to 100), Bedstraw: 85
bedstraw; Rate 4 g/ha
  Plant response rating (0 to 100), Bedstraw: 90
bedstraw; Rate 16 g/ha
  Plant response rating (0 to 100), Bedstraw: 100
Wild buckwheat; POSTEMERGENCE, Rate 10 g/ha
  Plant response rating, Wild buckwheat: 9
Wild buckwheat; POSTEMERGENCE, Rate 50 g/ha
  Plant response rating, Wild buckwheat: 10
Wild buckwheat; PREEMERGENCE, Rate 50 g/ha
  Plant response rating, Wild buckwheat: 8
corn
  Plant response rating, Corn: 50
corn; Rate 1 g/ha
  Plant response rating (0 to 100), Corn: 20
corn; Rate 4 g/ha
  Plant response rating (0 to 100), Corn: 30
corn; Rate 16 g/ha
  Plant response rating (0 to 100), Corn: 40
Purple nutsedge; POSTEMERGENCE, Rate 10 g/ha
  Plant response rating, Nutsedge: 2
Purple nutsedge; POSTEMERGENCE, Rate 50 g/ha
  Plant response rating, Nutsedge: 4
Purple nutsedge; PREEMERGENCE, Rate 50 g/ha
  Plant response rating, Nutsedge: 0
cocklebur; POSTEMERGENCE, Rate 10 g/ha
  Plant response rating, Cocklebur: 9
cocklebur; POSTEMERGENCE, Rate 50 g/ha
  Plant response rating (0 to 10 scale), Cocklebur: 10
cocklebur; PREEMERGENCE, Rate 10 g/ha
  Plant response rating, Cocklebur: 0
cocklebur; PREEMERGENCE, Rate 50 g/ha
  Plant response rating, Cocklebur: 5
Sugar beet
  Plant response rating, Sugar beet: 100
Sugar beet; Rate 1 g/ha
  Plant response rating (0 to 100), Sugar beet: 80
Sugar beet; Rate 4 g/ha
  Plant response rating (0 to 100), Sugar beet: 100
Sugar beet; Rate 16 g/ha
  Plant response rating (0 to 100), Sugar beet: 100
Rice [1]; POSTEMERGENCE, Rate 10 g/ha
  Plant response rating, Rice: 4
Rice [1]; POSTEMERGENCE, Rate 50 g/ha
  Plant response rating, Rice: 7
Rice [1]; PREEMERGENCE, Rate 50 g/ha
  Plant response rating, Rice: 1
Duck salad; [3]
  Plant response rating (0 to 100), Duck salad: 0
Duck salad; [4]
  Plant response rating (0 to 100), Duck salad: 0
Duck salad; [5]
  Plant response rating (0 to 100), Duck salad: 30
Duck salad
  Plant response rating Duck salad: 60
velvetleaf
  Plant response rating, Velvetleaf: 100
velvetleaf; Rate 1 g/ha
  Plant response rating (0 to 100), Velvetleaf: 100
velvetleaf; Rate 16 g/ha
  Plant response rating (0 to 100), Velvetleaf: 100
soybean; POSTEMERGENCE, Rate 10 g/ha
  Plant response rating, Soybean: 7
soybean; POSTEMERGENCE, Rate 50 g/ha
  Plant response rating, Soybean: 8
soybean; PREEMERGENCE, Rate 50 g/ha
  Plant response rating, Soybean: 0
cotton
  Plant response rating, Cotton: 100
cotton; Rate 1 g/ha
  Plant response rating (0 to 100), Cotton: 95
cotton; Rate 4 g/ha
  Plant response rating (0 to 100), Cotton: 100
cotton; Rate 16 g/ha
  Plant response rating (0 to 100), Cotton: 100
Giant foxtail
  Plant response rating, Giant foxtail: 70
Giant foxtail; Rate 1 g/ha
  Plant response rating (0 to 100), Giant foxtail: 20
Giant foxtail; Rate 4 g/ha
  Plant response rating (0 to 100), Giant foxtail: 30
Giant foxtail; Rate 16 g/ha
  Plant response rating (0 to 100), Giant foxtail: 50
pigweed
  Plant response rating Pigweed: 100
pigweed; Rate 1 g/ha
  Plant response rating (0 to 100), Pigweed: 95
pigweed; Rate 4 g/ha
  Plant response rating (0 to 100), Pigweed: 100
pigweed; Rate 16 g/ha
  Plant response rating (0 to 100), Pigweed: 100
blackgrass
  Plant response rating, Blackgrass: 50
blackgrass; Rate 1 g/ha
  Plant response rating (0 to 100), Blackgrass: 10
blackgrass; Rate 4 g/ha
  Plant response rating (0 to 100), Blackgrass: 30
blackgrass; Rate 16 g/ha
  Plant response rating (0 to 100), Blackgrass: 30
Rice [2]; [3]
  Plant response rating (0 to 100), Rice Japonica: 0
Rice [2]; [4]
  Plant response rating (0 to 100), Rice Japonica: 20
Rice [2]; [5]
  Plant response rating (0 to 100), Rice Japonica: 30
Rice [2]
  Plant response rating Rice Japonica: 75
Umbrella sedge; [3]
  Plant response rating (0 to 100), Umbrella sedge: 0
Umbrella sedge; [4]
  Plant response rating (0 to 100), Umbrella sedge: 0
Umbrella sedge; [5]
  Plant response rating (0 to 100), Umbrella sedge: 20
Umbrella sedge
  Plant response rating Umbrella sedge: 60

## C=CCN1C(=O)COc2cc(F)c(-c3nn4c(c3Cl)CCCC4)cc21 [Compound 33]
chickweed
  Plant response rating, Chickweed: 100
chickweed; Rate 1 g/ha
  Plant response rating (0 to 100), Chickweed: 40
chickweed; Rate 4 g/ha
  Plant response rating (0 to 100), Chickweed: 60
chickweed; Rate 16 g/ha
  Plant response rating (0 to 100), Chickweed: 85
bedstraw
  Plant response rating, Bedstraw: 100
bedstraw; Rate 1 g/ha
  Plant response rating (0 to 100), Bedstraw: 80
bedstraw; Rate 4 g/ha
  Plant response rating (0 to 100), Bedstraw: 90
bedstraw; Rate 16 g/ha
  Plant response rating (0 to 100), Bedstraw: 100
Wild buckwheat; POSTEMERGENCE, Rate 10 g/ha
  Plant response rating, Wild buckwheat: 10
Wild buckwheat; POSTEMERGENCE, Rate 50 g/ha
  Plant response rating, Wild buckwheat: 10
corn
  Plant response rating, Corn: 40
corn; Rate 1 g/ha
  Plant response rating (0 to 100), Corn: 20
corn; Rate 4 g/ha
  Plant response rating (0 to 100), Corn: 30
corn; Rate 16 g/ha
  Plant response rating (0 to 100), Corn: 30
Purple nutsedge; POSTEMERGENCE, Rate 10 g/ha
  Plant response rating, Nutsedge: 0
Purple nutsedge; POSTEMERGENCE, Rate 50 g/ha
  Plant response rating, Nutsedge: 5
Purple nutsedge; PREEMERGENCE, Rate 50 g/ha
  Plant response rating, Nutsedge: 0
cocklebur; POSTEMERGENCE, Rate 10 g/ha
  Plant response rating, Cocklebur: 10
cocklebur; POSTEMERGENCE, Rate 50 g/ha
  Plant response rating, Cocklebur: 10
cocklebur; PREEMERGENCE, Rate 10 g/ha
  Plant response rating, Cocklebur: 0
cocklebur; PREEMERGENCE, Rate 50 g/ha
  Plant response rating, Cocklebur: 5
Sugar beet
  Plant response rating, Sugar beet: 100
Sugar beet; Rate 1 g/ha
  Plant response rating (0 to 100), Sugar beet: 100
Sugar beet; Rate 4 g/ha
  Plant response rating (0 to 100), Sugar beet: 100
Sugar beet; Rate 16 g/ha
  Plant response rating (0 to 100), Sugar beet: 100
Rice [1]; POSTEMERGENCE, Rate 10 g/ha
  Plant response rating, Rice: 6
Rice [1]; POSTEMERGENCE, Rate 50 g/ha
  Plant response rating, Rice: 7
Rice [1]; PREEMERGENCE, Rate 50 g/ha
  Plant response rating, Rice: 3
Duck salad; [3]
  Plant response rating (0 to 100), Duck salad: 0
Duck salad; [4]
  Plant response rating (0 to 100), Duck salad: 0
Duck salad; [5]
  Plant response rating (0 to 100), Duck salad: 65
Duck salad
  Plant response rating Duck salad: 80
velvetleaf
  Plant response rating, Velvetleaf: 100
velvetleaf; Rate 1 g/ha
  Plant response rating (0 to 100), Velvetleaf: 70
velvetleaf; Rate 4 g/ha
  Plant response rating (0 to 100), Velvetleaf: 100
velvetleaf; Rate 16 g/ha
  Plant response rating (0 to 100), Velvetleaf: 100
soybean; POSTEMERGENCE, Rate 10 g/ha
  Plant response rating, Soybean: 8
soybean; POSTEMERGENCE, Rate 50 g/ha
  Plant response rating, Soybean: 9
soybean; PREEMERGENCE, Rate 50 g/ha
  Plant response rating, Soybean: 2
cotton
  Plant response rating, Cotton: 100
cotton; Rate 1 g/ha
  Plant response rating (0 to 100), Cotton: 100
cotton; Rate 4 g/ha
  Plant response rating (0 to 100), Cotton: 100
cotton; Rate 16 g/ha
  Plant response rating (0 to 100), Cotton: 100
Giant foxtail
  Plant response rating, Giant foxtail: 70
Giant foxtail; Rate 1 g/ha
  Plant response rating (0 to 100), Giant foxtail: 0
Giant foxtail; Rate 4 g/ha
  Plant response rating (0 to 100), Giant foxtail: 0
Giant foxtail; Rate 16 g/ha
  Plant response rating (0 to 100), Giant foxtail: 20
pigweed
  Plant response rating Pigweed: 100
pigweed; Rate 1 g/ha
  Plant response rating (0 to 100), Pigweed: 100
pigweed; Rate 4 g/ha
  Plant response rating (0 to 100), Pigweed: 100
pigweed; Rate 16 g/ha
  Plant response rating (0 to 100), Pigweed: 100
blackgrass
  Plant response rating, Blackgrass: 60
blackgrass; Rate 1 g/ha
  Plant response rating (0 to 100), Blackgrass: 30
blackgrass; Rate 4 g/ha
  Plant response rating (0 to 100), Blackgrass: 50
blackgrass; Rate 16 g/ha
  Plant response rating (0 to 100), Blackgrass: 50
Rice [2]; [3]
  Plant response rating (0 to 100), Rice Japonica: 20
Rice [2]; [4]
  Plant response rating (0 to 100), Rice Japonica: 50
Rice [2]; [5]
  Plant response rating (0 to 100), Rice Japonica: 60
Rice [2]
  Plant response rating Rice Japonica: 85
Umbrella sedge; [3]
  Plant response rating (0 to 100), Umbrella sedge: 10
Umbrella sedge; [4]
  Plant response rating (0 to 100), Umbrella sedge: 20
Umbrella sedge; [5]
  Plant response rating (0 to 100), Umbrella sedge: 70
Umbrella sedge
  Plant response rating Umbrella sedge: 80
